Assay results: PubChem BioAssay (NCI)
Several values for one entry are separate records, joined by “and”; a condition that tells them apart may be missing. Equal entries are not always repeated.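 Protocol summary: plate cells (96-well), add compound at 5 concentrations, incubate 48 h, interpolate endpoints linearly. The concentration for 50% growth inhibition is given as GI50. TGI denotes the concentration required for complete inhibition of growth.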

Columns and labels:
Assay in all cases: NCI-60 cell line screen, 48 h
[1] = tested on: HCC-2998 colon
[2] = tested on: MCF7 breast
[3] = tested on: OVCAR-3 ovarian
[4] = tested on: OVCAR-5 ovarian
[5] = tested on: OVCAR-8 ovarian
[6] = tested on: SF-539 CNS

Work on [N-]=[N+]=CC(=O)COC(=O)c1ccccc1 yielded a TGI [1] of over 100 µM, a TGI [2] of over 100 µM and a TGI [3] of over 100 µM. It also gave a TGI [4] of over 100 µM, a TGI [5] of over 100 µM and a TGI [6] of over 100 µM.

C/C=C(/C)c1cnc(CC(C)C)c(=O)[nH]1 gave a TGI [1] of over 100 µM, a TGI [3] of over 100 µM and a TGI [4] of over 100 µM. It also gave a TGI [5] of over 100 µM.

Molecule CCOC(=O)Nc1nc2cc(OCC)ccc2s1 has a GI50 [1] of over 41.3 µM, a TGI [1] of over 100 µM and a GI50 [2] of 5.01 µM. It also gave a TGI [2] of over 100 µM, a GI50 [3] of 35 µM and a TGI [3] of over 100 µM. For the same molecule, the GI50 [4] was over 100 µM, the TGI [4] was over 100 µM and the GI50 [5] was over 76.1 µM. The TGI [5] was over 100 µM, the GI50 [6] was over 100 µM and the TGI [6] was over 100 µM.

CN1c2ccccc2S(=O)(=O)n2c(CCc3ccccc3)nnc21 showed a TGI [1] of over 100 µM, a TGI [2] of over 100 µM and a TGI [3] of over 100 µM. It also gave a TGI [4] of over 100 µM, a TGI [5] of over 100 µM and a TGI [6] of over 100 µM.

O=C(Nc1ccc(Br)cc1)Nc1nn(C(=O)Nc2ccc(Br)cc2)c2ccccc12 showed a GI50 [1] of over 100 µM, a TGI [1] of over 100 µM and a GI50 [2] of 29.1 µM. It also gave a TGI [2] of over 100 µM, a GI50 [3] of 33.9 µM and a TGI [3] of over 77.6 µM. For the same molecule, the GI50 [4] was over 100 µM, the TGI [4] was over 100 µM and the GI50 [5] was 36.2 µM. It also gave a TGI [5] of over 100 µM, a GI50 [6] of 29.3 µM and a TGI [6] of over 100 µM.

With CC[C@H](Nc1nc(N)nc(C2CC2)c1C#N)c1nc2cccc(NCc3ccc(C(=O)NO)cc3)c2c(=O)n1-c1ccccc1 the GI50 [1] was 1.95 µM, the TGI [1] was 5 µM and the GI50 [2] was 2.06 µM. The TGI [2] was 8.28 µM, the GI50 [3] was 1.73 µM and the TGI [3] was 4.55 µM. It also gave a GI50 [4] of 1.92 µM, a TGI [4] of 5.08 µM and a GI50 [6] of 1.72 µM. For the same molecule, the TGI [6] was 3.24 µM.

For CCN(CC)CCOc1c(OC)c(Br)cc2c(C)c(C(=O)OC)oc12, the GI50 [1] was 2.42 µM, the TGI [1] was 7.41 µM and the GI50 [2] was 1.63 µM. For the same molecule, the TGI [2] was 5.74 µM, the GI50 [3] was 0.982 µM and the TGI [3] was 2.28 µM. It also gave a GI50 [4] of 3.14 µM, a TGI [4] of 9.29 µM and a GI50 [5] of 2.13 µM. It also gave a TGI [5] of 7.88 µM, a GI50 [6] of 1.47 µM and a TGI [6] of 3.15 µM.

Molecule COc1cc2c3c(c1OC)C1(C=CC(=O)C=C1)CC3NCC2 (stereo not drawn) has a TGI [1] of over 100 µM, a TGI [2] of over 100 µM and a TGI [3] of over 100 µM. It also gave a TGI [4] of over 100 µM, a TGI [5] of over 100 µM and a TGI [6] of over 100 µM.

CC(=O)c1cccc(-c2cccc(-c3ccn(CCN4CCOCC4)n3)c2)c1 showed a GI50 [1] of over 20 µM, a TGI [1] of over 20 µM and a GI50 [2] of over 20 µM. The TGI [2] was over 20 µM, the GI50 [3] was over 20 µM and the TGI [3] was over 20 µM. It also gave a GI50 [4] of over 20 µM, a TGI [4] of over 20 µM and a GI50 [5] of over 20 µM. It also gave a TGI [5] of over 20 µM, a GI50 [6] of over 20 µM and a TGI [6] of over 20 µM.

In the case of C[C@]12CC[C@H]3[C@@H](CC[C@]4(O)C[C@@H](O)CC[C@]34CO)[C@@]1(O)CC[C@@H]2C1=CC(=O)OC1, the TGI [1] is reported as 67.9 µM, the TGI [3] is reported as 3.21 µM and the TGI [4] is reported as 10.5 µM. It also gave a TGI [5] of 3.82 µM and a TGI [6] of 2.41 µM.

In the case of Oc1c(Cl)cc(Cl)cc1Sc1cc(Cl)cc(Cl)c1O, the GI50 [1] is reported as 3.7 µM, the TGI [1] is reported as 14.7 µM and the GI50 [2] is reported as 3.06 µM and 2.88 µM. For the same molecule, the TGI [2] was 10.5 µM and 10.2 µM, the GI50 [3] was 3.66 µM and 2.96 µM and the TGI [3] was 11.3 µM and 10.2 µM. For the same molecule, the GI50 [4] was 4.37 µM and 4.04 µM, the TGI [4] was 17.9 µM and 14.2 µM and the GI50 [5] was 3.28 µM and 2.85 µM. The TGI [5] was 12.6 µM and 11.4 µM, the GI50 [6] was 3.46 µM and 3.4 µM and the TGI [6] was 16.1 µM and 11.8 µM.

C[C@]12CC[C@@H](OC(=O)N(CCCl)N=O)C[C@@H]1CC[C@@H]1[C@@H]2CC[C@]2(C)C(=O)CC[C@@H]12 showed a GI50 [1] of 2.77 µM, a TGI [1] of 9.43 µM and a GI50 [2] of 1.38 µM. The TGI [2] was 19.2 µM, the GI50 [3] was 5.76 µM and the TGI [3] was 19.9 µM. It also gave a GI50 [4] of 27.2 µM, a TGI [4] of 57.7 µM and a GI50 [5] of 7.21 µM. It also gave a TGI [5] of 28.5 µM, a GI50 [6] of 0.33 µM and a TGI [6] of 13.4 µM.

O=C(O)c1cccc(/C=C/c2ccccc2)c1 gave a TGI [2] of over 100 µM, a TGI [3] of over 100 µM and a TGI [4] of over 100 µM. The TGI [5] was over 100 µM and the TGI [6] was over 100 µM.

CC[C@]1(O)C[C@@H]2CN(CCc3c([nH]c4ccccc34)[C@@](C(=O)OC)(c3cc4c(cc3OC)N(C)[C@H]3[C@@](O)(C(N)=O)[C@H](O)[C@]5(CC)[C@@H]6C[C@@H]6CN6CC[C@]43[C@@H]65)C2)C1 was tested, and the GI50 [1] was 0.00413 µM, the TGI [1] was over 29 µM and the GI50 [2] was under 0.00333 µM. It also gave a TGI [2] of over 18.2 µM, a GI50 [3] of under 0.00333 µM and a TGI [3] of 0.0818 µM. For the same molecule, the GI50 [4] was 0.0912 µM, the TGI [4] was over 33.3 µM and the GI50 [5] was 0.0143 µM. It also gave a TGI [5] of over 33.3 µM, a GI50 [6] of under 0.00333 µM and a TGI [6] of 0.0143 µM.

N=c1ccc2nc3c(cc(N)c4ccccc43)oc-2c1 was tested, and the GI50 [1] was 0.38 µM, the TGI [1] was 1.31 µM and the GI50 [2] was 0.162 µM. The TGI [2] was 0.342 µM, the GI50 [3] was 0.0265 µM and the TGI [3] was 0.0834 µM. It also gave a GI50 [4] of 0.348 µM, a TGI [4] of 1.2 µM and a GI50 [5] of 0.457 µM. For the same molecule, the TGI [5] was 3.28 µM, the GI50 [6] was 0.293 µM and the TGI [6] was 1.05 µM.

For CC1(C)C(=O)C=CC2(C)C1CC(O)C1(C)C2CCC2(C)C(c3ccoc3)OC(=O)C3OC321 (stereo not drawn), the TGI [1] was 26.2 µM, the TGI [2] was over 100 µM and the TGI [3] was 36 µM. For the same molecule, the TGI [4] was over 100 µM and the TGI [5] was 26.8 µM.

With CNCCNc1nc2ccccc2c2c(=O)c3cc(OC)ccc3sc12 the GI50 [1] was 1.47 µM, the TGI [1] was 2.9 µM and the GI50 [2] was 1.54 µM. The TGI [2] was 3.1 µM, the GI50 [3] was 1.84 µM and the TGI [3] was 3.43 µM. The GI50 [4] was 1.8 µM, the TGI [4] was 3.27 µM and the GI50 [5] was 1.91 µM. The TGI [5] was 4.39 µM, the GI50 [6] was 1.66 µM and the TGI [6] was 3.03 µM.

CCOC(=O)c1c2c(n(Cc3ccccc3)c1C)-c1nc(Cc3ccccc3)[nH]c1C(=O)C2=O was tested, and the GI50 [1] was 2.6 µM, the TGI [1] was 4.09 µM and the GI50 [2] was 1.66 µM. The TGI [2] was 4.34 µM, the GI50 [3] was 1.13 µM and the TGI [3] was 2.47 µM. For the same molecule, the GI50 [4] was 1.98 µM, the TGI [4] was 3.62 µM and the GI50 [5] was 2.03 µM. It also gave a TGI [5] of 4.99 µM, a GI50 [6] of 1.77 µM and a TGI [6] of 3.3 µM.

In the case of O=C(N/N=C/c1ccc(Cl)cc1)c1[nH]c2ccc(Cl)cc2c1-c1ccccc1, the GI50 [1] is reported as 0.326 µM, the TGI [1] is reported as 15.5 µM and the GI50 [2] is reported as 0.115 µM. For the same molecule, the TGI [2] was 21.7 µM, the GI50 [3] was 0.0265 µM and the TGI [3] was 0.0584 µM. It also gave a GI50 [4] of 0.573 µM, a TGI [4] of over 100 µM and a GI50 [5] of 0.132 µM. It also gave a TGI [5] of 32.6 µM, a GI50 [6] of 0.0947 µM and a TGI [6] of 0.267 µM.

CCCCCCNC(=O)n1cc(F)c(=O)[nH]c1=O gave a GI50 [1] of 0.287 µM, a TGI [1] of 18.4 µM and a GI50 [2] of 0.65 µM. It also gave a TGI [2] of 16.8 µM, a GI50 [3] of 11.1 µM and a TGI [3] of over 100 µM. The GI50 [4] was 12.8 µM, the TGI [4] was 37.2 µM and the GI50 [5] was 3.29 µM. The TGI [5] was 24.1 µM, the GI50 [6] was 0.514 µM and the TGI [6] was 15.1 µM.

With COc1cc2ncnc3c2cc1OCCCCCN(C)Cc1ccc(Br)cc1N3 the GI50 [1] was 17.7 µM and > 10 µM, the TGI [1] was over 100 µM and the GI50 [2] was 8.89 µM and 5.35 µM. The TGI [2] was over 100 µM, the GI50 [3] was 2.48 µM and 1.76 µM and the TGI [3] was over 100 µM. The GI50 [4] was 12.9 µM and 1.87 µM, the TGI [4] was over 100 µM and the GI50 [5] was 12 µM and 2.67 µM. It also gave a TGI [5] of over 100 µM, a GI50 [6] of over 100 µM and a TGI [6] of over 100 µM.
